Data published in US20150031697A1, “METHOD FOR PREVENTING ULTRAVIOLET RADIATION-INDUCED CUTANEOUS DAMAGE AND DEVELOPMENT OF SQUAMOUS CELL CARCINOMAS” (WISCONSIN ALUMNI RESEARCH FOUNDATION, priority 2013, published 2015).
Like-named read-outs stand apart in the source and are kept apart here. Blank lines part the entries; values can stand above or below the compound they belong to.

Assays:
[1] = system: UVR-induced hyperplasia; assay: Effect of topically applied Hsp90 inhibitors on UVR-induced hyperplasia (Table 3); for Effect on Hyperplasia, Mice 1 or Slide 1, 24 Hr. post UVR: key: +++ (positive effect); −−− (negative effect); −− (less negative); for Effect on Hyperplasia, Mice 2 or Slide 2, 24 Hr. post UVR: key: +++ (positive effect); −−− (negative effect); −− (less negative); for Effect on Hyperplasia, Mice 2 or Slide 2, 48 Hr. post UVR: key: +++ (positive effect); −−− (negative effect); −− (less negative); format: in vivo, SKH1 mice; design: Effect on Hyperplasia, Mice 2 or Slide 2, 24 Hr. post UVR / Effect on Hyperplasia, Mice 2 or Slide 2, 48 Hr. post UVR / Effect on Hyperplasia, Mice 1 or Slide 1, 24 Hr. post UVR / Effect on Hyperplasia, Mice 1 or Slide 1, 48 Hr. post UVR: key: +++ (positive effect); −−− (negative effect); −− (less negative); settings: for Effect on Hyperplasia, Mice 1 or Slide 1, 24 Hr. post UVR / Effect on Hyperplasia, Mice 1 or Slide 1, 48 Hr. post UVR / Effect on Hyperplasia, Mice 2 or Slide 2, 24 Hr. post UVR / Effect on Hyperplasia, Mice 2 or Slide 2, 48 Hr. post UVR: SKH1 mice, topical; for Effect on Hyperplasia, Mice 1 or Slide 1, 24 Hr. post UVR: mouse 1, 24 Hr. post UVR; for Effect on Hyperplasia, Mice 1 or Slide 1, 48 Hr. post UVR: mouse 1, 48 Hr. post UVR; for Effect on Hyperplasia, Mice 2 or Slide 2, 24 Hr. post UVR: mouse 2, 24 Hr. post UVR; for Effect on Hyperplasia, Mice 2 or Slide 2, 48 Hr. post UVR: mouse 2, 48 Hr. post UVR
[2] = clinical trials; cited from earlier work
[3] = in vivo; cited from earlier work
[4] = system: human Hsp90; settings: cited from earlier work
[5] = system: UVR-induced hyperplasia; assay: 17AAG effect on UVR-induced hyperplasia / epidermal thickness; format: in vivo; settings: SKH1 mice, 500 nmol topical after each UVR exposure, 24 hr and 48 hr after fourth UVR, p<0.01
Method: Groups of SKH1 mice were exposed to UVR (2 kJ/m2) three times (Monday, Wednesday, Friday, and Monday) weekly for 6 and 12 weeks. […] Mice were sacrificed at 24 hours after the last UVR treatment. […] For histochemistry, skin specimens were fixed in 10% neutral buffered formalin for 24 hours and embedded in paraffin.
In this experiment, groups of SKH1 hairless mice were exposed either four times to UVR (4 kJ/m^2, Monday, Wednesday, Friday, and Monday) or for 6 and 12 weeks (2 kJ/m^2, thrice weekly, Monday, Wednesday, Friday). […] The mice were sacrificed at 24 hr and 48 hr after the fourth UVR exposure. The, dorsal skin was removed and fixed in 10% formalin for the analyses of epidermal hyperplasia.

[6] = cited from earlier work
[7] = biological target: Hsp90β-PKCε interaction (Mus musculus, UniProt P11499); settings: 500 nmol topical before and after one UVR exposure, 24 hours post-UVR
Method: PKCε-overexpressing transgenic mice (line 224) were exposed once to UVR (4 kJ/m2). […] Mice were sacrificed 24 hours post-UVR exposure. There were two mice per treatment point. Dorsal skin comprised excised, epidermal cell lysates prepared as described before (Aziz et al., 2007). Pooled epidermal cell lysate was analyzed for PKCε-Hsp90β interaction by immunoprecipitation/Western blot analyses (A).
Epidermal lysates were prepared as for Western blot analysis. 100 μg of epidermal lysate was incubated with 10 μg of the indicated antibody. The total volume of the lysate/antibody mixture was adjusted to 1,000 μL with lysis buffer to allow for appropriate mixing and rotated at 4° C. overnight. Lysate/antibody mixture was then mixed with 50 μL of protein agarose A/G (sc-2003 Santa Cruz Biotechnology, Santa Cruz, Calif.) for 6 h. Lysate/antibody/protein A/G agarose mixture was then centrifuged at 8,000 g for 10 min to sediment the protein A/G agarose. Pellet was washed with 0.1% tween in PBS and then sedimented at 8,000 g for 10 min three times to wash any non-specific binding from the pellet. After three washes the immunoprecipite was then boiled for 5 min in 20 μL Protein Loading Buffer Blue (Cat # EC-886, National Diagnostics, Atlanta, Ga.). Immunoprecipitates were then treated as in Western Blot analysis above.

[8] = system: PKCε, Hsp90β, Hsp70; assay: Expression levels in uninvolved skin at end of SCC experiment; format: in vivo, SKH-1 hairless mice; settings: SKH hairless mice
Method: (§1) The SKH-1 hairless mice (6-7 week old) were exposed to UVR. The UVR source was Kodacel-filtered FS-40 sun lamps (approximately 60% UVB and 40% UVA). Mice were exposed to UVR (1.8 kJ/m2) three times weekly (Monday, Wednesday and Friday). The mice in the vehicle group (n=18) received topical treatment of 200 μl vehicle (DMSO:acetone: 1:40 v/v) before and after each UVR exposures. […] Carcinomas were recorded grossly as downward-invading lesions, which were confirmed histologically. […] At the end of the experiment, mice were sacrificed. […] A part of the uninvolved dorsal skin was fixed for in 10% neutral-buffered formalin for histological examination. […] (D): A part of the uninvolved skin was also used to prepare total epidermal lysate to determine expression level of PKCε, Hsp90β, and Hsp70.
(§2) 4. […] Initial tumor induction experiment was performed with SKH-1 hairless mice.

[9] = cited from earlier work; for bioavailability: literature
[10] = system: UVR-induced SCC; assay: UVR-induced development of SCC in PKCε overexpressing transgenic FVB/N mice and wild-type littermates; format: in vivo
Method: (§3) The PKCε-overexpressing transgenic (TG) and wildtype FVB/N mice (6-7 week old) were exposed to UVR. Mice were exposed to UVR (1.8 kJ/m2) three times weekly (Monday, Wednesday and Friday). The mice in the vehicle group received topical treatment of 200 μl vehicle (DMSO:acetone: 1:40 v/v) before and after UVR each exposure. […] Carcinomas were recorded grossly as downward-invading lesions, which were confirmed histologically. […] There were 11 mice in each group.
(§4) SKH1 hairless mice were purchased from Charles River Laboratories (Wilmington, Mass.). PKCε transgenic mice were generated as described previously (Reddig et al., 2000). The UVR source was Kodacel-filtered FS-40 sunlamps (approximately 60% UV-B and 40% UV-A). Mice were exposed to UVR from a bank of six Kodacel-filtered sunlamps. UVR dose was routinely measured using UVX-radiometer.

[11] = system: UVR-induced SCC; assay: UVR-induced development of SCC in SKH-1 hairless mice (tumor induction experiment); format: in vivo
Method: as §1, §3, §4, §2

[12] = system: MMP-2, MMP-9, Collagen IV, Hsp70; assay: Skin expression of MMPs, collagen IV, Hsp70 and PCNA after UVR (Western blot); format: in vivo; settings: SKH1 mice
Method: Groups of SKH1 mice were exposed to UVR (2 kJ/m2) three times (Monday, Wednesday, Friday, and Monday) weekly for 6 and 12 weeks. […] Mice were sacrificed at 24 hours after the last UVR treatment. […] To determine morphological and biochemical alteration in skin, the two layers of skin (epidermis and dermis) were isolated separately for analysis of the indicated protein by the western blot analysis.
Mouse skin was excised and scraped to remove subcutaneous fat. The epidermis was scraped off on an ice-cold glass plate, homogenized in lysis buffer [50 mmol/L HEPES, 150 mmol/L NaCl, 10% glycerol, 1% Triton X-100, 1.5 mmol/L MgCl2, 10 μg/m aprotinin, 10 μg/m leupeptin, 1 mmol/L phenylmethylsulfonyl fluoride (PMSF), 200 μmol/L Na3VO4, 200 μmol/L NaF, and 1 mmol/L EGTA (final pH 7.5)]. The homogenate was centrifuged at 14,000 g for 30 min at 4° C. Epidermal cell lysate proteins were fractionated on 10% Criterion™ pre-cast SDS-polyacrylamide gels (Bio-Rad Laboratories, Hercules, Calif.). The protein was transferred to 0.45 μm Hybond-P polyvinylidene difluoride (PVDF) transfer membrane (Amersham Life Sciences, Piscataway, N.J.). The membrane was then incubated with the indicated antibody followed by a horseradish peroxidase secondary antibody (Thermo Scientific), and the detection signal was developed with Amersham's enhanced chemiluminescence reagent and using FOTO/Analyst Luminary Work Station (Fotodyne Inc.). The Western blots were quantitated by densitometric analysis using Totallab® Nonlinear Dynamic Image analysis software (Nonlinear USA, Inc., Durham, N.C.).

[13] = system: PKCε, Stat3, pStat3Tyr705, pStat3Ser727, Akt, pAktser473; assay: Epidermal protein expression levels after UVR (Western blot); format: in vivo, PKCε-overexpressing transgenic mice
Method: PKCε-overexpressing transgenic mice (line 224) were exposed once to UVR (4 kJ/m2). […] Mice were sacrificed 24 hours post-UVR exposure. There were two mice per treatment point. Dorsal skin comprised excised, epidermal cell lysates prepared as described before (Aziz et al., 2007). […] PKCε-overexpressing transgenic mice (line 224) were exposed once to UVR (2 kJ/m2). […] Mice were sacrificed at 24 hours post-UVR exposure. There were three mice per treatment point. Dorsal skin comprised excised, epidermal cell lysates prepared as described before (Aziz et al., 2007). Pooled epidermal cell lysate was analyzed for PKCε expression level by western blot analysis (B). (C) Shown is the quantitation of the western blot (B).
Mouse skin was excised and scraped to remove subcutaneous fat. The epidermis was scraped off on an ice-cold glass plate, homogenized in lysis buffer [50 mmol/L HEPES, 150 mmol/L NaCl, 10% glycerol, 1% Triton X-100, 1.5 mmol/L MgCl2, 10 μg/m aprotinin, 10 μg/m leupeptin, 1 mmol/L phenylmethylsulfonyl fluoride (PMSF), 200 μmol/L Na3VO4, 200 μmol/L NaF, and 1 mmol/L EGTA (final pH 7.5)]. The homogenate was centrifuged at 14,000 g for 30 min at 4° C. […] The Western blots were quantitated by densitometric analysis using Totallab® Nonlinear Dynamic Image analysis software (Nonlinear USA, Inc., Durham, N.C.). […]

[14] = system: Hsp90; settings: cited from earlier work
[15] = HPLC analysis of 17AAG in serum and mouse epidermis after topical application; format: in vivo, mice (SKH-1 hairless, FVB)
Method: SKH hairless mice (6-7 weeks old) were exposed to UVR (1.8 kJ/m^2) three times weekly (Monday, Wednesday, and Friday). The mice in the vehicle group (n=3) received topical treatment of 200 μl vehicle (DMSO:acetone: 1:40 v/v) before and after UVR exposures. […] All mice were treated for 25 weeks and sacrificed at 1, 3, 6 and 24 hours following the last UVR exposure. (A) Blood samples were collected to analyze serum 17AAG by HPLC. […] Mice were sacrificed at 6 and 24 hours post-17AAG treatment. (B) Blood samples were collected for serum 17AAG analysis. (C) 17AAG level was also analyzed in the epidermal protein lysate. To prepare epidermal lysate, epidermis was scraped and homogenized in the lysis buffer. […] Each value is an average of duplicate samples. ND: Not detectable. Inset: Chemical structure of 17AAG.
Dorsal areas of the mice (6-7 week old) were shaved and depilated one day before the treatment. […] Blood samples were collected to detect 17AAG in serum. To prepare epidermal lysate, epidermis was removed and homogenized with the lysis buffer. 17-AAG levels in the serum and mouse epidermis were analyzed by HPLC (Shin, et al., 2012).
1. Topically applied 17AAG is distributed both in epidermis and serum.

[16] = both mice, 24 hr and 48 hr post-UVR
[17] = SKH-1 hairless mice, 17AAG applied post each UVR exposure only
[18] = 500 nmol topical after each UVR, 6 and 12 weeks
[19] = FVB mice, single topical application, 6 hr after treatment

Hsp90β-PKCε interaction, sequence (P11499 2-724 limits assumed): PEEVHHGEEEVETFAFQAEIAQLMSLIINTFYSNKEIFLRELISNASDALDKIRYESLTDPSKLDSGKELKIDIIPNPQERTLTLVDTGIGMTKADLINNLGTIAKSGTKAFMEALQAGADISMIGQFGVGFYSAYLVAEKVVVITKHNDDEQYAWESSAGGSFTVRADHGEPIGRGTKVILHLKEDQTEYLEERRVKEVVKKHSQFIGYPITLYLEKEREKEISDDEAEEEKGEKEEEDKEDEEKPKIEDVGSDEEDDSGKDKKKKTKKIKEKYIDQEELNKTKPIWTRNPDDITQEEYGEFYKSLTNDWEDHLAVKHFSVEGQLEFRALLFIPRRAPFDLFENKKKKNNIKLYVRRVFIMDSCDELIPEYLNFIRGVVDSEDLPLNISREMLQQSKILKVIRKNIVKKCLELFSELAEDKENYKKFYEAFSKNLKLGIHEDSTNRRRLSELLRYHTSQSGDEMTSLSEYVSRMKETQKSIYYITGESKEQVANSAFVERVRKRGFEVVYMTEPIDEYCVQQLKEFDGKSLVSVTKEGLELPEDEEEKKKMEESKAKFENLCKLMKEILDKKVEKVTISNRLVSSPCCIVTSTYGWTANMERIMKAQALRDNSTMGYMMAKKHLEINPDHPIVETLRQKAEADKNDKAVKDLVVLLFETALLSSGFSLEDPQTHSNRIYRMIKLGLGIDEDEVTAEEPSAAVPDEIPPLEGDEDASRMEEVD

Structure (SMILES): CCNC(=O)c1cc2c(-c3cc(OCCN4CCCC4)c(Cl)cc3Cl)nc(N)nc2[nH]1 [NPVBEP800]
Effect on Hyperplasia, Mice 1 or Slide 1, 24 Hr. post UVR [1]: +++
Effect on Hyperplasia, Mice 1 or Slide 1, 48 Hr. post UVR [1]: +++
Effect on Hyperplasia, Mice 2 or Slide 2, 24 Hr. post UVR [1]: +++
Effect on Hyperplasia, Mice 2 or Slide 2, 48 Hr. post UVR [1]: +++
effect on UVR-induced hyperplasia (Table 3) [1, 16]: positive effect

Structure (SMILES): COC1=C2C[C@@H](C)C[C@H](OC)[C@H](O)[C@@H](C)/C=C(\C)[C@H](OC(N)=O)[C@@H](OC)/C=C\C=C(/C)C(=O)NC(=CC1=O)C2=O [Geldanamycin]
liver toxicity [2]: liver toxicity

Structure (SMILES): CO[C@H]1/C=C\C=C(/C)C(=O)NC2=CC(=O)C(NCCN(C)C)=C(C[C@@H](C)C[C@H](OC)[C@H](O)[C@@H](C)/C=C(\C)[C@@H]1OC(N)=O)C2=O.Cl [17DMAG]
oral bioavailability [3]: excellent
potency against human Hsp90 relative to 17-AAG [4]: ~2 times

Structure (SMILES): CC1(C)CC(=O)c2c(C(F)(F)F)nn(-c3ccc(C(N)=O)c(N[C@H]4CC[C@H](O)CC4)c3)c2C1 [SNX-2112]
Effect on Hyperplasia, Mice 2 or Slide 2, 24 Hr. post UVR [1]: +++
Effect on Hyperplasia, Mice 2 or Slide 2, 48 Hr. post UVR [1]: +++
effect on UVR-induced hyperplasia (Table 3) ([1]; mouse 1, 24 hr and 48 hr post-UVR): no effect
effect on UVR-induced hyperplasia (Table 3) ([1]; mouse 2, 24 hr and 48 hr post-UVR): positive effect

Structure (SMILES): CCNC(=O)c1noc(-c2cc(C(C)C)c(O)cc2O)c1-c1ccc(CN2CCOCC2)cc1 [NVPAU922]
effect on UVR-induced hyperplasia (Table 3) [1, 16]: slightly negative effect

UVR-induced PKCε-Hsp90β interaction [7]: suppressed
half-life of topically applied 17AAG ([15]; 500 nmol in DMSO:acetone 1:40 on skin, inferred from decline at 24 hours): short
epidermal 17AAG level [15, 19]: detectable
serum 17AAG level [15, 19]: detectable
serum and epidermal 17AAG levels ([15]; SKH-1 and FVB mice, 24 hours post-17AAG treatment): lowest
time of maximum serum 17AAG level post topical application ([15]; SKH-1 hairless mice, topical 500 nmol with three weekly UVR exposures for 25 weeks): 1 h
Structure (SMILES): C=CCNC1=C2C[C@@H](C)C[C@H](OC)[C@H](O)[C@@H](C)/C=C(\C)[C@H](OC(N)=O)[C@@H](OC)/C=C\C=C(/C)C(=O)NC(=CC1=O)C2=O [17AAG, 17-allylamino-demethoxygeldanamycin]
UVR-induced hyperplasia (epidermal thickness) [5]: inhibited
Effect on Hyperplasia, Mice 1 or Slide 1, 24 Hr. post UVR [1]: +++
Effect on Hyperplasia, Mice 1 or Slide 1, 48 Hr. post UVR [1]: +++
Effect on Hyperplasia, Mice 2 or Slide 2, 24 Hr. post UVR [1]: +++
Effect on Hyperplasia, Mice 2 or Slide 2, 48 Hr. post UVR [1]: +++
effect on UVR-induced hyperplasia (Table 3) [1, 16]: positive effect
solubility in water or organic solvent, such as DMSO and ethanol, compared with Geldanamycin [6]: higher
Hsp70 level [8]: increase
Hsp90β and PKCε expression levels [8]: inhibition
Half-life ([9]; administered intravenous or orally, literature reports): 3 to 4 h
bioavailability ([9]; given intraperitoneally): excellent
bioavailability ([9]; given orally): modest
UVR-induced development of SCC ([10]; PKCε overexpressing transgenic FVB/N mice, topical 500 nmol before and after each UVR, p=0.036): significantly inhibited
UVR-induced development of SCC ([10]; wild-type and PKCε overexpressing transgenic FVB/N mice, topical, p<0.01): significantly (p<0.01) inhibited
UVR-induced development of SCC ([10]; wild-type littermates (FVB/N), topical 500 nmol before and after each UVR, p=0.018): significantly inhibited
SCC incidence ([11]; SKH hairless mice, 500 nmol topical before and after each UVR exposure): significantly (p=0.038) inhibited
change in SCC latency ([11]; SKH hairless mice, 500 nmol topical before and after each UVR exposure (1.8 kJ/m2, three times weekly)): 17 weeks
increase in SCC latency [11, 17]: 20 weeks
inhibition of SCC incidence [11, 17]: > 50%
UVR-induced hyperplasia in uninvolved dorsal skin ([11]; end of SCC experiment, SKH hairless mice (FIG. 5C)): inhibition
expression level of MMP-2, MMP-9, collagen IV [12, 18]: decrease
expression of Hsp70 [12, 18]: increase
UVR-induced proliferative marker PCNA ([12]; topical): inhibited
PKCε expression level ([13]; 500 nmol topical before and after one UVR exposure, 24 hours post-UVR (FIG. 3A input)): did not appreciably affect
Stat3, pStat3Ser727, pStat3Tyr705 and pAktser473 expression levels ([13]; topical before and after one UVR exposure, 24 hours post-UVR): inhibited
higher affinity for Hsp90 derived from tumor cells compared to Hsp90 from normal cells [14]: 100 fold
